Patent US11672762B2, “Onapristone extended-release compositions and methods” (Context Biopharma Inc., priority 2014, dated 2023)

Experiments:
[1] = human, in vivo
Description: PK results for onapristone are available for 52 patients from the a first study (ARN-AR18-CT-101) (Table 1). Variability for onapristone PK is moderate and greater for the IR versus the ER formulation. Onapristone Cmax and AUC values for the ER form are proportional to administered dose (FIGS. 1 and 2). Based on observed mean AUC values, oral bioavailability for the ER versus the IR formulation is approximately 50% (FIG. 24). A later Tmax value for the ER form results in somewhat lower dose-corrected Cmax values for the ER form compared to the IR form. Steady state is attained before day 8 with a mean t % of 7.5 hrs.
Table 1 compares descriptive statistics for the primary onapristone pharmacokinetic exposure parameters following single oral doses from 10 to 50 mg of extended-release onapristone compared to that from 100 mg immediate-release onapristone (Study ARN-AR18-CT-101). […]
Blood samples were collected at 0, 1, 2, 3, 4, 6, 8, 12 (before next BID dose), and 24 (before next dose—for 100 mg IR only) hours post-ONA, as well as hour 0 on days 8, 29 and 57 (just before drug intake). Plasma concentrations of ONA, mono-demethylated onapristone (M1) and other metabolites in plasma and urine were analyzed with a validated ultra-performance liquid chromatography with tandem mass spectrometry detection (UPLC-MS/MS) assay. […]

[2] = tested on: gonadotrophin (LH and FSH) secretion; conditions: immediate release doses of 1 and 10 mg; cited from earlier work
[3] = original immediate release (IR) formulation; cited from earlier work

For `CN(C)c1ccc([C@H]2C[C@]3(C)[C@@H](CC[C@]3(O)CCCO)[C@@H]3CCC4=CC(=O)CCC4=C32)cc1` [onapristone, (8S,11R,13R,14S,17S)-11-[4-(dimethylamino)phenyl]-17-hydroxy-17-(3-hydroxypropyl)-13-methyl-1,2,6,7,8,11,12,14,15,16-decahydrocyclopenta[a]phenanthren-3-one], the Steady state attained [1] is listed as less than 8 days, the mean t % [1] is listed as 7.5 h and the “effect on gonadotrophin (LH, FSH) secretion” value [2] is listed as “dose-dependent effect of onapristone on suppression of gonadotrophin”. The tolerability [3] was “well-tolerated with the exception of abnormalities in liver function tests”.
